# Square brackets hold non-standard residues; d marks the D form. Peptide text beside a SMILES is read from it. * marks the point of attachment. X5 = CC(C)C[C@H](NC(=O)[C@H](Cc1ccccc1)NC(=O)CCCCCN1C(=O)CC(*)C1=O)B1O[C@@H]2[C@@H]3C[C@H](C[C@]2(C)O1)C3(C)C; Pen = CC(C)(S)[C@H](N)C(=O)O; Tle = CC(C)(C)[C@H](N)C(=O)O
# Tested on: SW48 (human colon cancer cells)
# Assay: inhibition of SW48 cell proliferation (CellTiter Glo)
# Assay type: cell-based
# Conditions: NTSR1 scrambled compound; 72 hrs; read-out: SW-48 proliferation IC50
# Protocol: Conjugates were assessed in an in vitro assay evaluating inhibition of cell proliferation. SW48 (human colon cancer cells, ATCC®), cells were plated in 96 well, flat-bottomed plates (Costar) at a concentration of 5,000 cells/well. Cells were then incubated at 37° C. with 5% CO2 for 24 hrs. After 24 hrs, cells were treated with 0.01% DMSO or compound. Compounds were added at a starting dose of 10 μM and three fold serial dilutions were done for a total often points. Following compound addition, cells were incubated at 37° C. with 5% CO2 for 72 hrs. Proliferation was measured by CellTiter Glo reagent using the standard protocol (Promega) and a Glomax multi+detection system (Promega). Percent proliferation inhibition was calculated using the following formula: % inhibition=(control−treatment)/control*100. Control is defined as vehicle alone. IC50 curves were generated using the nonlinear regression analysis (four parameter) with GraphPad Prism 6.
# Conjugates are assessed for receptor-dependent cytotoxicity by the difference between an NTSR1-targeting conjugate, and the corresponding conjugate with the same linker moiety and active agent where the NTSR1-targeting domain has been scrambled.
row,Structure (SMILES),IC50 [µM]
1,CC[C@H](C)[C@@H]([C@@H](CC(=O)N1CCC[C@H]1[C@H](OC)[C@@H](C)C(=O)N[C@H](C)[C@@H](O)c1ccccc1)OC)N(C)C(=O)[C@@H](NC(=O)[C@H](C(C)C)N(C)C(=O)OCc1ccc(NC(=O)[C@H](CCCNC(N)=O)CC(=O)[C@@H](NC(=O)CCCCCN2C(=O)CC(SCCC(=O)NCCOCCOCCOCCOCCOCCOCCOCCOCCC(=O)NCCCC[C@H](NC(C)=O)C(=O)N3CCC[C@H]3C(=O)N[C@@H](CC(C)C)C(=O)N3CCC[C@H]3C(=O)N(C)[C@@H](CCCNC(=N)N)C(=O)N[C@H](C(=O)N[C@@H](CCCNC(=N)N)C(=O)N[C@@H](Cc3ccc(O)cc3)C(=O)O)C(C)(C)C)C2=O)C(C)C)cc1)C(C)C (stereo partly shown) [Compound 96],0.0767
2,COc1cc2cc(c1Cl)N(C)C(=O)C[C@H](OC(=O)[C@H](C)N(C)C(=O)CCSC1CC(=O)N(CCCNC(=O)CNC(=O)[C@H](CC(C)C)NC(=O)[C@H](Cc3ccccc3)NC(=O)CNC(=O)CCCCCN3C(=O)CC(SCCC(=O)NCCOCCOCCOCCOCCOCCOCCOCCOCCC(=O)NCCCC[C@H](NC(C)=O)C(=O)N4CCC[C@H]4C(=O)N[C@@H](CC(C)C)C(=O)N4CCC[C@H]4C(=O)N(C)[C@@H](CCCNC(=N)N)C(=O)N[C@H](C(=O)N[C@@H](CCCNC(=N)N)C(=O)N[C@@H](Cc4ccc(O)cc4)C(=O)O)C(C)(C)C)C3=O)C1=O)[C@]1(C)O[C@H]1[C@H](C)[C@@H]1C[C@@](O)(NC(=O)O1)[C@H](OC)/C=C/C=C(\C)C2 (stereo partly shown) [Compound 85],0.0595
3,COc1cc2cc(c1Cl)N(C)C(=O)C[C@H](OC(=O)[C@H](C)N(C)C(=O)CCSC1CC(=O)N(CCCNC(=O)CNC(=O)[C@H](CC(C)C)NC(=O)[C@H](Cc3ccccc3)NC(=O)CNC(=O)CCCCCN3C(=O)CC(SCCC(=O)NCCCC[C@H](NC(C)=O)C(=O)N4CCC[C@H]4C(=O)N[C@@H](CC(C)C)C(=O)N4CCC[C@H]4C(=O)N(C)[C@@H](CCCNC(=N)N)C(=O)N[C@H](C(=O)N[C@@H](CCCNC(=N)N)C(=O)N[C@@H](Cc4ccc(O)cc4)C(=O)O)C(C)(C)C)C3=O)C1=O)[C@]1(C)O[C@H]1[C@H](C)[C@@H]1C[C@@](O)(NC(=O)O1)[C@H](OC)/C=C/C=C(\C)C2 (stereo partly shown) [Compound 82],0.435
4,CCc1c2c(nc3ccc(O)cc13)-c1cc3c(c(=O)n1C2)COC(=O)[C@@]3(CC)OC(=O)OCc1ccc(NC(=O)[C@H](CCCNC(N)=O)NC(=O)[C@@H](NC(=O)CCCCCN2C(=O)CC(SC(C)(C)[C@H](NC(C)=O)C(=O)N3CCC[C@H]3C(=O)N[C@@H](CC(C)C)C(=O)N3CCC[C@H]3C(=O)N[C@@H](CCCNC(=N)N)C(=O)N[C@H](C(=O)N[C@@H](CCCNC(=N)N)C(=O)N[C@@H](Cc3ccc(O)cc3)C(=O)O)C(C)(C)C)C2=O)C(C)C)cc1 (stereo partly shown) [Compound 98],0.061
5,CO[C@H]1C(=O)[C@]2(C)[C@@H](OC)C[C@H]3OC[C@@]3(OC(C)=O)[C@H]2[C@H](OC(=O)c2ccccc2)[C@]2(O)C[C@H](OC(=O)[C@H](OC(=O)CCCCCN3C(=O)CC(SC(C)(C)[C@H](NC(C)=O)C(=O)N4CCC[C@H]4C(=O)N[C@@H](CC(C)C)C(=O)N4CCC[C@H]4C(=O)N[C@@H](CCCNC(=N)N)C(=O)N[C@H](C(=O)N[C@@H](CCCNC(=N)N)C(=O)N[C@@H](Cc4ccc(O)cc4)C(=O)O)C(C)(C)C)C3=O)[C@@H](NC(=O)OC(C)(C)C)c3ccccc3)C(C)=C1C2(C)C (stereo partly shown) [Compound 72],0.368

# Same assay, conditions: NTSR1 targeted compound; 72 hrs; read-out: SW-48 proliferation IC50
row,Structure (SMILES),IC50 [µM]
1,CC[C@H](C)[C@@H]([C@@H](CC(=O)N1CCC[C@H]1[C@H](OC)[C@@H](C)C(=O)N[C@H](C)[C@@H](O)c1ccccc1)OC)N(C)C(=O)[C@@H](NC(=O)[C@H](C(C)C)N(C)C(=O)OCc1ccc(NC(=O)[C@H](CCCNC(N)=O)NC(=O)[C@@H](NC(=O)CCCCCN2C(=O)CC(SCCC(=O)NCCOCCOCCC(=O)NCCCC[C@H](NC(C)=O)C(=O)N3CCC[C@H]3C(=O)N(C)[C@@H](CCCNC(=N)N)C(=O)N[C@@H](CCCNC(=N)N)C(=O)N3CCC[C@H]3C(=O)N[C@@H](Cc3ccc(O)cc3)C(=O)N[C@H](C(=O)N[C@@H](CC(C)C)C(=O)O)C(C)(C)C)C2=O)C(C)C)cc1)C(C)C (stereo partly shown) [Compound 60],0.0446
2,COc1cc2cc(c1Cl)N(C)C(=O)C[C@H](OC(=O)[C@H](C)N(C)C(=O)CCSC1CC(=O)N(CCCNC(=O)CNC(=O)[C@H](CC(C)C)NC(=O)[C@H](Cc3ccccc3)NC(=O)CNC(=O)CCCCCN3C(=O)CC(SCCC(=O)NCCOCCOCCC(=O)NCCCC[C@H](NC(C)=O)C(=O)N4CCC[C@H]4C(=O)N(C)[C@@H](CCCNC(=N)N)C(=O)N[C@@H](CCCNC(=N)N)C(=O)N4CCC[C@H]4C(=O)N[C@@H](Cc4ccc(O)cc4)C(=O)N[C@H](C(=O)N[C@@H](CC(C)C)C(=O)O)C(C)(C)C)C3=O)C1=O)[C@]1(C)O[C@H]1[C@H](C)[C@@H]1C[C@@](O)(NC(=O)O1)[C@H](OC)/C=C/C=C(\C)C2 (stereo partly shown) [Compound 24],0.002
3,CC[C@H](C)[C@@H]([C@@H](CC(=O)N1CCC[C@H]1[C@H](OC)[C@@H](C)C(=O)N[C@H](C)[C@@H](O)c1ccccc1)OC)N(C)C(=O)[C@@H](NC(=O)[C@H](C(C)C)N(C)C(=O)OCc1ccc(NC(=O)[C@H](CCCNC(N)=O)NC(=O)[C@@H](NC(=O)CCCCCN2C(=O)CC(SCCC(=O)NCCOCCOCCOCCOCCOCCOCCOCCOCCC(=O)NCCCC[C@H](NC(C)=O)C(=O)N3CCC[C@H]3C(=O)N(C)[C@@H](CCCNC(=N)N)C(=O)N[C@@H](CCCNC(=N)N)C(=O)N3CCC[C@H]3C(=O)N[C@@H](Cc3ccc(O)cc3)C(=O)N[C@H](C(=O)N[C@@H](CC(C)C)C(=O)O)C(C)(C)C)C2=O)C(C)C)cc1)C(C)C (stereo partly shown) [Compound 62],0.0501
4,CO[C@H]1C(=O)[C@]2(C)[C@@H](OC)C[C@H]3OC[C@@]3(OC(C)=O)[C@H]2[C@H](OC(=O)c2ccccc2)[C@]2(O)C[C@H](OC(=O)[C@H](OC(=O)N(C)CCN(C)C(=O)OCc3ccc(NC(=O)[C@H](CCCNC(N)=O)NC(=O)[C@@H](NC(=O)CCCCCN4C(=O)CC(SC(C)(C)[C@H](NC(C)=O)C(=O)N5CCC[C@H]5C(=O)N[C@@H](CCCNC(=N)N)C(=O)N(C)[C@@H](CCCNC(=N)N)C(=O)N5CCC[C@H]5C(=O)N[C@@H](Cc5ccc(O)cc5)C(=O)N[C@H](C(=O)N[C@@H](CC(C)C)C(=O)O)C(C)(C)C)C4=O)C(C)C)cc3)[C@@H](NC(=O)OC(C)(C)C)c3ccccc3)C(C)=C1C2(C)C (stereo partly shown) [Compound 6],2.24
5,CC[C@H](C)[C@@H]([C@@H](CC(=O)N1CCC[C@H]1[C@H](OC)[C@@H](C)C(=O)N[C@H](C)[C@@H](O)c1ccccc1)OC)N(C)C(=O)[C@@H](NC(=O)[C@H](C(C)C)N(C)C(=O)OCc1ccc(NC(=O)[C@H](CCCNC(N)=O)NC(=O)[C@@H](NC(=O)CCCCCN2C(=O)CC(SCCC(=O)NCCOCCOCCOCCOCCC(=O)NCCCC[C@H](NC(C)=O)C(=O)N3CCC[C@H]3C(=O)N(C)[C@@H](CCCNC(=N)N)C(=O)N[C@@H](CCCNC(=N)N)C(=O)N3CCC[C@H]3C(=O)N[C@@H](Cc3ccc(O)cc3)C(=O)N[C@H](C(=O)N[C@@H](CC(C)C)C(=O)O)C(C)(C)C)C2=O)C(C)C)cc1)C(C)C (stereo partly shown) [Compound 61],0.0337
6,CC(=O)N[C@H](C(=O)N1CCC[C@H]1C(=O)N[C@@H](CCCNC(=N)N)C(=O)N[C@@H](CCCNC(=N)N)C(=O)N1CCC[C@H]1C(=O)N[C@@H](Cc1ccc(O)cc1)C(=O)N[C@H](C(=O)N[C@@H](CC(C)C)C(=O)O)C(C)(C)C)C(C)(C)SC1CC(=O)N(CCCCCC(=O)N[C@@H](Cc2ccccc2)C(=O)N[C@@H](CC(C)C)B2O[C@@H]3[C@@H]4C[C@H](C[C@]3(C)O2)C4(C)C)C1=O (stereo partly drawn) [Compound 1] (Ac-[Pen](X5)PRRPY[Tle]L-OH),> 10
7,COc1cc2cc(c1Cl)N(C)C(=O)C[C@H](OC(=O)[C@H](C)N(C)C(=O)CCSC1CC(=O)N(CCCNC(=O)CNC(=O)[C@H](CC(C)C)NC(=O)[C@H](Cc3ccccc3)NC(=O)CNC(=O)CCCCCN3C(=O)CC(SCCC(=O)NCCOCCOCCOCCOCCOCCOCCOCCOCCC(=O)NCCCC[C@H](NC(C)=O)C(=O)N4CCC[C@H]4C(=O)N(C)[C@@H](CCCNC(=N)N)C(=O)N[C@@H](CCCNC(=N)N)C(=O)N4CCC[C@H]4C(=O)N[C@@H](Cc4ccc(O)cc4)C(=O)N[C@H](C(=O)N[C@@H](CC(C)C)C(=O)O)C(C)(C)C)C3=O)C1=O)[C@]1(C)O[C@H]1[C@H](C)[C@@H]1C[C@@](O)(NC(=O)O1)[C@H](OC)/C=C/C=C(\C)C2 (stereo partly shown) [Compound 26],0.005
8,CO[C@H]1C(=O)[C@]2(C)[C@@H](OC)C[C@H]3OC[C@@]3(OC(C)=O)[C@H]2[C@H](OC(=O)c2ccccc2)[C@]2(O)C[C@H](OC(=O)[C@H](OC(=O)N(C)CCN(C)C(=O)OCc3ccc(NC(=O)[C@H](CCCNC(N)=O)NC(=O)[C@@H](NC(=O)CCCCCN4C(=O)CC(SC(C)(C)[C@H](NC(C)=O)C(=O)N5CCC[C@H]5C(=O)N[C@@H](CCCNC(=N)N)C(=O)N(C)[C@@H](CCCNC(=N)N)C(=O)N5CCC[C@H]5C(=O)N[C@H](Cc5ccc(O)cc5)C(=O)N[C@H](C(=O)N[C@@H](CC(C)C)C(=O)O)C(C)(C)C)C4=O)C(C)C)cc3)[C@@H](NC(=O)OC(C)(C)C)c3ccccc3)C(C)=C1C2(C)C (stereo partly shown) [Compound 7],2

# Reference: patent US20200078468A1, “NEUROTENSIN RECEPTOR BINDING CONJUGATES AND FORMULATIONS THEREOF” (priority 2016, published 2020)
